pKd: −log10 of the molar value.

In one series the test system is Aβ(8-15). Description: SPR binding kinetics to immobilized Aβ(8-15). The procedure: (§1) Binding kinetics were determined by SPR using a Biacore™ X (GE Healthcare, UK). Synthetic Aβ peptides were dissolved in 10 mM NaAc, pH 4.0. The CM5 sensor chip surface (GE Healthcare, UK) was activated using N-ethyl-N′-3 […] carbodiimide (EDC) and N-hydroxysuccinimide (NHS) chemistry followed by 2-(2-pyridinyldithio)ethaneamine hydrochloride (PDEA), in order to introduce a reactive thiol group. Aβ was coupled via the C-terminal cysteine to the chip at a flow rate of 5 µl/min, and the remaining active groups were blocked by injecting cysteine. The immobilization procedure was performed according to manufacturer’s recommendation. All kinetic analyses were performed at a flow rate of 20 µl/min in PBS. Varying concentrations of scFv-IC16 (10 to 5000 nM) and IC16 (10 to 1000 nM) were injected. […] When required, the surface was regenerated by injecting 20 µl 50 mM glycine, pH 11.0. The data evaluation was performed using Biaevaluation Software 4.1.1. ScFv-IC16 data were fitted according to the Langmuir 1∶1 binding model, whereas IC16 data were fitted according to the bivalent binding model. Standard errors of equilibrium dissociation constants (KD) were calculated using standard errors of the corresponding association and dissociation rate constants.

A further series has as its target Aβ(2-8). Description: SPR binding kinetics to immobilized Aβ(2-8). As for the experimental part:
as §1
(Surface plasmon resonance follows binding to a sensor surface in real time, without labels.)

A further series deals with Aβ(pE3-8). Put plainly: SPR binding kinetics to immobilized Aβ(pE3-8). The note with it: SPR; two N-terminal residues truncated, E3 modified into pyroE3. The procedure:
as §1

The test system of another series is Aβ(1-42). Put plainly: Thioflavin T (ThT) assay of Aβ(1-42) fibrilization. The series is classed as biochemical, human. As to conditions: for fibrilization of Aβ(1-42), ThT fluorescence: PBS, room temperature, value after 10 h, n = 5. As for the experimental part:
7.5 µM Aβ(1-42) (stock solution of 190 µM in DMSO, freshly prepared before usage) were incubated with 10 µM ThT in PBS in absence or presence of different concentrations of scFv-IC16 (1.5, 3.75 and 7.5 µM) at room temperature for 24 h. In addition, scFv-IC16 (7.5 µM) without Aβ(1-42) was tested under the same conditions as the negative control. For all samples a reference value, generated with PBS and ThT only, was subtracted. […] The plate was covered by an adhesive film preventing evaporation of the sample buffer. Fluorescence recordings were performed every 30 min for 22 h (excitation wavelength 440 nm, emission wavelength 490 nm, Polarstar Optima, BMG, Ortenberg, Germany). The experiments were performed five-fold, and the average of the obtained values as well as the standard deviation was calculated.

In a further series the target is Aβ(3-8). Description: SPR binding kinetics to immobilized Aβ(3-8). As for the experimental part: as §1
[1] abbreviates: SPR Biacore X, CM5 chip, PBS, 25°C, global fit, scFv-IC16 Langmuir 1:1 model, IC16 bivalent model.
Setting [2] is: SPR Biacore X, CM5 chip, PBS, 25°C, global fit, scFv-IC16 Langmuir 1:1 model, IC16 bivalent model, ± standard error, SEM.

In general, pKd refers to −log10 of the Kd, conventionally taken in molar units. On to “scFv-IC16: single-chain variable fragment (VH-(Gly4Ser)3-VL, His6- and Myc-tag) derived from Aβ binding monoclonal antibody IC16, expressed in E. coli”, for which the “interaction with Aβ(8-15)” value in the series with Aβ(8-15) was “No interaction”. In addition, the pKd at Aβ(2-8) (setting [1]) was 6.95; on Aβ(2-8) (SPR, Langmuir 1:1 binding model), about 6.95; on Aβ(3-8) (setting [1]), 5.28; at Aβ(3-8) (SPR, A2 of Aβ truncated), under 5.30. Further, the k off in the series on Aβ(2-8) (setting [2]) is on record as 7.65±0.03×10^−3 s^-1; in the series on Aβ(3-8) (setting [2]), 43.9±0.3×10^−3 s^-1. In addition, the k on in the series with Aβ(2-8) (setting [2]) is reported as 6.84±0.03×10^4 M^-1 s^-1; in the series on Aβ(3-8) (setting [2]), 8.36±0.5×10^3 M^-1 s^-1. Moreover, the “binding to Aβ(pE3-8)” value with Aβ(pE3-8) is reported as “no binding could be detected”. The “ThT fluorescence of scFv-IC16 only” value with Aβ(1-42) (7.5 µM scFv-IC16 without Aβ(1-42), negative control, after 10 h) is recorded as “did not show ThT fluorescence”. The “fibrilization of Aβ(1-42), ThT fluorescence” value in the series with Aβ(1-42) (ratio 1:1: 7.5 µM Aβ(1-42) with 7.5 µM scFv-IC16, 10 µM ThT) is given as “completely inhibited”; in the series on Aβ(1-42) (ratio 2:1: 7.5 µM Aβ(1-42) with 3.75 µM scFv-IC16, 10 µM ThT), “reduced the ThT fluorescence significantly”; in the series on Aβ(1-42) (ratio 5:1: 7.5 µM Aβ(1-42) with 1.5 µM scFv-IC16, 10 µM ThT), “reduced the ThT fluorescence significantly”.

For the origin of these results see paper PMC3608532, “Characterization of a Single-Chain Variable Fragment Recognizing a Linear Epitope of Aβ: A Biotechnical Tool for Studies on Alzheimer’s Disease?” (PLoS ONE, 2013).
